Experimental data taken from ChEMBL document CHEMBL1201862, “PubChem BioAssay data set” (2004).
Activity calls are given as the source filed them.

How the values were obtained:
[1] = molecular target: Diphosphomevalonate decarboxylase (Streptococcus pneumoniae serotype 2 (strain D39 / NCTC 7466), UniProt Q9FD53); experiment: S. pneumoniae DPM-DC inhibition retest, confirmation, biochemical, cuvette format, coupled NADH fluorescence (AID 1028); format: functional
[2] = molecular target: T1, Estrogen receptor (Homo sapiens, UniProt P03372);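 note: potency for inhibiting coactivator peptide recruitment to the receptor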
T1 sequence (P03372 whole entry): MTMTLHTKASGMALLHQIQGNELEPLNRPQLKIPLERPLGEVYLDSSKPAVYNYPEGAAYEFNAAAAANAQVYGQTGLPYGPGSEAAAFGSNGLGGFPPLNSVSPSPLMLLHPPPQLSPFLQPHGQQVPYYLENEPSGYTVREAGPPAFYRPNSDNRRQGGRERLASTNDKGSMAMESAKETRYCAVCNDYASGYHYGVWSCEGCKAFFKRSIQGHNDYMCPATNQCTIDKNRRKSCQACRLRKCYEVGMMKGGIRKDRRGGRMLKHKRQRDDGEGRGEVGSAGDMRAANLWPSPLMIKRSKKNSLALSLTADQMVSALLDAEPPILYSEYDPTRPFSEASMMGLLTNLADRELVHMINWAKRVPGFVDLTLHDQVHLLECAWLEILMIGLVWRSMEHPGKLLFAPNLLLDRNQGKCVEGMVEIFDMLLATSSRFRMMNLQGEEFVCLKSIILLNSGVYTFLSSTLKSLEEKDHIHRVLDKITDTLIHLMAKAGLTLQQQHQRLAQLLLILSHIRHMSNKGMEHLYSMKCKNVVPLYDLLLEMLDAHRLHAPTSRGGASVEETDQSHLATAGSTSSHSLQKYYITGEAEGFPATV

[3] = molecular target: Estrogen receptor beta (Homo sapiens, UniProt Q92731);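 note: recombinant ER-beta bound to coactivator SRC1 peptide in presence of estradiol agonist; inhibitors block coactivator peptide binding and lower the FRET signal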
[4] = Luminescence-based dose response cell-based high throughput screening assay for cytotoxic compounds using the IEC-6 intestinal epithelial cell line. [Related pubchem assays: 1858 (Summary AID.), 1825 (Counterscreen.), 1907 (Confirmation screen.)]; format: functional
[5] = system: Vero; experiment: cells; format: functional, cell-based; conditions: Chlorocebus sabaeus
[6] = system: Vero; experiment: cells; format: functional; conditions: Chlorocebus sabaeus
[7] = molecular target: T2, Type-1 angiotensin II receptor (Homo sapiens, UniProt P30556); experiment: AT1 receptor antagonists, dose response, selectivity assay for APJ receptor antagonist project, cell-based, uHTS hits (AID 463214); format: functional;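 note: antagonist potency against angiotensin II stimulated AT1 response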
T2 sequence (P30556 whole entry): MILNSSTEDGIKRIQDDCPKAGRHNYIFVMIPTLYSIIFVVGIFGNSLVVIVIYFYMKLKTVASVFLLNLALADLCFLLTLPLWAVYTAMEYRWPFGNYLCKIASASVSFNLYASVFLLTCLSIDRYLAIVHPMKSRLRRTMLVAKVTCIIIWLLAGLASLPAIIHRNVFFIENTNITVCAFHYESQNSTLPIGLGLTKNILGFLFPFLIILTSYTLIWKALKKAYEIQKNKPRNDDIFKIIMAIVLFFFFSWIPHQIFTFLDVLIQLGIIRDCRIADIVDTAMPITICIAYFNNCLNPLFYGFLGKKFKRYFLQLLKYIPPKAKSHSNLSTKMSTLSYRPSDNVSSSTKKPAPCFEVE

[8] = system: INS1; experiment: beta cell apoptosis inhibitors, cytokine rescue, dose response, luminescence, retest (AID 449756); format: functional, cell-based; conditions: Rattus norvegicus;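 note: cell death triggered by IL-1 beta plus TNF-alpha plus IFN-gamma mixture; protective hits raise ATP signal compared with cytokine alone wells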
[9] = system: BJ; experiment: cytotoxicity toward BJ-TERT-LT-ST fibroblasts, dose response, cell-based, RAS-independent, luminescence (AID 1935); format: functional; conditions: Homo sapiens;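 note: BJ fibroblasts immortalized with TERT plus LT and ST oncogenes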
[10] = molecular target: Beta-galactosidase (Escherichia coli, UniProt Q8VNN2); experiment: PubChem AID 485352; format: functional
[11] = molecular target: Nonstructural protein 1 (Influenza A virus, UniProt Q194T2); format: functional, Influenza A virus (A/California/07/2009(H1N1))
[12] = cytotoxicity toward DRD oncogenic fibroblasts, dose response, cell-based, non-viral oncogenic, luminescence (AID 1934); format: functional; conditions: Homo sapiens
[13] = system: BJ; experiment: cytotoxicity toward Ras-transformed BJeLR fibroblasts, dose response, cell-based, alamar blue fluorescence, cherrypicked samples (AID 2631); format: functional; conditions: Homo sapiens;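 note: confirmatory dose-response assay in RAS-dependent BJ fibroblasts engineered with TERT, LT and ST, with cytotoxicity read by fluorescence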
[14] = system: Vero; experiment: host cell cytotoxicity of antiviral hits, dose response, cytotoxicity control for West Nile virus antiviral project, secondary assay (AID 1650); format: functional; conditions: Chlorocebus sabaeus
[15] = system: BJ; experiment: cytotoxicity toward BJ-TERT fibroblasts, dose response, cell-based, RAS-independent, luminescence (AID 1933); format: functional; conditions: Homo sapiens
[16] = system: BJ; experiment: cells; format: functional, cell-based; conditions: Homo sapiens
[17] = molecular target: 5-hydroxytryptamine receptor 1A (Homo sapiens, UniProt P08908); format: functional
[18] = system: Vero; experiment: cytotoxicity of synthesized analogs in Vero cells, SAR follow-up, cytotoxicity control for West Nile virus antiviral project, cell-based, set II (AID 2402); format: functional; conditions: Chlorocebus sabaeus
[19] = system: Vero; experiment: cytotoxicity of synthesized analogs in Vero 76, SAR follow-up, cytotoxicity control for West Nile virus antiviral project, Vero 76 cells (AID 2414); format: functional; conditions: Chlorocebus sabaeus
[20] = cytotoxicity toward NIH3T3 fibroblasts, dose response, counter-screen, cell-based, ATP luminescence, mouse fibroblasts (AID 2010); format: functional;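 note: cells exposed to compound for about 90 hours before reading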
[21] = inhibitors of intracellular T. cruzi replication, confirmation, NIH3T3 host cells, beta-gal luminescence (AID 2044); format: functional, cell-based;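 note: intracellular parasites grown in NIH/3T3 mouse fibroblasts as host cells; luminescent beta-galactosidase reporter signal from transgenic T. cruzi replicating inside host cells; inhibitors lower the luminescence signal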
[22] = cells
[23] = Luminescent dose response cell-based high throughput screening assay for inhibitors of the Janus kinase 2 mutant JAK2V617F. [Related pubchem assays: 1446 (Primary screen.), 1521 (Confirmation assay.), 1486 (Counter screen.)]; format: functional
[24] = molecular target: Voltage-gated inwardly rectifying potassium channel KCNH2 (Homo sapiens, UniProt Q12809); experiment: hERG protection from proarrhythmic block, potency, dose response, cell-based, thallium flux (AID 2121); format: ADME
Sequence of Voltage-gated inwardly rectifying potassium channel KCNH2 (Q12809 whole entry): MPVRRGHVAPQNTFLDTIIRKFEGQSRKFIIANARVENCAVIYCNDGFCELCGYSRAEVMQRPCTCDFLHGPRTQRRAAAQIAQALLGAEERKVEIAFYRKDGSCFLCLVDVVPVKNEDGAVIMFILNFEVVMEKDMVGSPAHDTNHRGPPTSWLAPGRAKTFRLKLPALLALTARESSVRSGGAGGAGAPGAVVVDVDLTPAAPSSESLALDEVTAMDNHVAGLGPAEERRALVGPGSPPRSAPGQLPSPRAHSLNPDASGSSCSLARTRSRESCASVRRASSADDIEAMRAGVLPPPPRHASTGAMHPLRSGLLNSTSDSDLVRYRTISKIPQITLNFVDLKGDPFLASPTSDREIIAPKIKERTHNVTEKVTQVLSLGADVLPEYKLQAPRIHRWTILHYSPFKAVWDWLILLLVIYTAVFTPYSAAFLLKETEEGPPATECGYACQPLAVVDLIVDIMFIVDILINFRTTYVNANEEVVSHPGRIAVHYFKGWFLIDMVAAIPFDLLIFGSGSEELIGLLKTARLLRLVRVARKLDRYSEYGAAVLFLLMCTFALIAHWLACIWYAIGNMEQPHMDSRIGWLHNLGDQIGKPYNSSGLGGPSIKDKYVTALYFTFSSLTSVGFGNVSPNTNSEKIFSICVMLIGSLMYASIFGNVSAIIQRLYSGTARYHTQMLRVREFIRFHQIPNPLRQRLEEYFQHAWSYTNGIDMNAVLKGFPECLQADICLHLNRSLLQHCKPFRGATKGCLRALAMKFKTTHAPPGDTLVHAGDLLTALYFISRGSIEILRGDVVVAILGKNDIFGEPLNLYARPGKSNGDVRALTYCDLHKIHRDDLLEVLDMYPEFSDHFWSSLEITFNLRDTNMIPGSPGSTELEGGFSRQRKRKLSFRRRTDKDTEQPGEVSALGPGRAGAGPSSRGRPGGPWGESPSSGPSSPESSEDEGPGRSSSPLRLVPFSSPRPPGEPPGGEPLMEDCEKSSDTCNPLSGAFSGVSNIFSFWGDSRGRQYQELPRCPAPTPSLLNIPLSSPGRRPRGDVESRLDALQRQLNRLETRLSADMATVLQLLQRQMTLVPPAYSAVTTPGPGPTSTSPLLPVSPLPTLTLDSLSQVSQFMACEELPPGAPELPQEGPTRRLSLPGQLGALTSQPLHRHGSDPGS

Sequence of Diphosphomevalonate decarboxylase (Q9FD53 whole entry): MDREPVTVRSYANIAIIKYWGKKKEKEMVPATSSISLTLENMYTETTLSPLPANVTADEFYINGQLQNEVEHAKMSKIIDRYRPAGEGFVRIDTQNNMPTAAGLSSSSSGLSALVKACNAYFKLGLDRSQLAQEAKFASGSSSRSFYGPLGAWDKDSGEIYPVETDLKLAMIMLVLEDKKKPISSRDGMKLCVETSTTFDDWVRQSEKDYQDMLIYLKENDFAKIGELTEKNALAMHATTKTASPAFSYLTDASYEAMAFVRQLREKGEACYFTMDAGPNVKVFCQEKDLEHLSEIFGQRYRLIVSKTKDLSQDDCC
Sequence of Beta-galactosidase (Q8VNN2 whole entry): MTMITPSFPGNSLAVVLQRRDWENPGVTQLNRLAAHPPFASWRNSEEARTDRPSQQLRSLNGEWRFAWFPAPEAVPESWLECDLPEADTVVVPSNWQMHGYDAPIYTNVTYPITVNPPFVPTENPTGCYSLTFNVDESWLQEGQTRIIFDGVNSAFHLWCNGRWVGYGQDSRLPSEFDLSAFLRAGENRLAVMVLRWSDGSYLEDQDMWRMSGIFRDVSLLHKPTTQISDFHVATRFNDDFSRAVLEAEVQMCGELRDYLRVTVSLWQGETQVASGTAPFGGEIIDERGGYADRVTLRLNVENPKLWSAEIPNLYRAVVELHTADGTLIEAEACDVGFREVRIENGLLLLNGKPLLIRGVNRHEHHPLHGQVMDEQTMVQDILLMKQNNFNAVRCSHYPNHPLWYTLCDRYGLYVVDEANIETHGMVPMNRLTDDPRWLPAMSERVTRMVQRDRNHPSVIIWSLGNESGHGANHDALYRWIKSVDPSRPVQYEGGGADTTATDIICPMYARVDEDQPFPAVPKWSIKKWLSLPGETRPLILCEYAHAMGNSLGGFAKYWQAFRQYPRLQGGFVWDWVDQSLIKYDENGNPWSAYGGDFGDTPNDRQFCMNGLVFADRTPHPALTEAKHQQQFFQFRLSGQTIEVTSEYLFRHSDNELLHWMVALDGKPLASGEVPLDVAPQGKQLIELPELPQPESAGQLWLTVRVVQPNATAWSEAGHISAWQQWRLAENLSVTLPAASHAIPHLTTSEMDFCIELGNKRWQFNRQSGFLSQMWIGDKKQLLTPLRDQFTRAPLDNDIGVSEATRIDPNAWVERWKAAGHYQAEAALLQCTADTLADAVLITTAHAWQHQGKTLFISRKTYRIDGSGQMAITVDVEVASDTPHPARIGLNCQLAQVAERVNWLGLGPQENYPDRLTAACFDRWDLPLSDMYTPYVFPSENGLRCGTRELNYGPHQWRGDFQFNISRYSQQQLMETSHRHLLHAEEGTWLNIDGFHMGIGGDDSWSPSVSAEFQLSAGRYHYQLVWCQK
Sequence of Nonstructural protein 1 (Q194T2 whole entry): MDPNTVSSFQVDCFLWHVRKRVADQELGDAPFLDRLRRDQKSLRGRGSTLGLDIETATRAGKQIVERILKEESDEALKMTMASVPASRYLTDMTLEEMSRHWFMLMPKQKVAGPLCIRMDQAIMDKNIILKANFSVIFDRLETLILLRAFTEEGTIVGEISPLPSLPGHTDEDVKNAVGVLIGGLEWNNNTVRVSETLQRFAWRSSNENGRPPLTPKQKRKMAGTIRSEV
Sequence of Estrogen receptor beta (Q92731 whole entry): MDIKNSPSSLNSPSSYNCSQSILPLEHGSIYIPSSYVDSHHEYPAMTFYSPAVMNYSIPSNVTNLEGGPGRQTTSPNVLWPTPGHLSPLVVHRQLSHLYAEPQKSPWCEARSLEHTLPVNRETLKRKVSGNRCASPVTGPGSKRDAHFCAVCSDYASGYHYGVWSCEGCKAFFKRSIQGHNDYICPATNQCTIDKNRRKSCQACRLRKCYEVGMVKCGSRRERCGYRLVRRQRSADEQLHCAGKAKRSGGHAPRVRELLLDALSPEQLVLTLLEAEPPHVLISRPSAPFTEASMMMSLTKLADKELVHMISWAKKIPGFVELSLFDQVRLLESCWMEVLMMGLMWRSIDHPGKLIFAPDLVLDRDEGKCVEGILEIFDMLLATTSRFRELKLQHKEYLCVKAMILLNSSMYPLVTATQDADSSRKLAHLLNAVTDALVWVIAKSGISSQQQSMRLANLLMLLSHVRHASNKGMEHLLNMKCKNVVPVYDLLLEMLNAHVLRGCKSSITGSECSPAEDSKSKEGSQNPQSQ
Sequence of 5-hydroxytryptamine receptor 1A (P08908 whole entry): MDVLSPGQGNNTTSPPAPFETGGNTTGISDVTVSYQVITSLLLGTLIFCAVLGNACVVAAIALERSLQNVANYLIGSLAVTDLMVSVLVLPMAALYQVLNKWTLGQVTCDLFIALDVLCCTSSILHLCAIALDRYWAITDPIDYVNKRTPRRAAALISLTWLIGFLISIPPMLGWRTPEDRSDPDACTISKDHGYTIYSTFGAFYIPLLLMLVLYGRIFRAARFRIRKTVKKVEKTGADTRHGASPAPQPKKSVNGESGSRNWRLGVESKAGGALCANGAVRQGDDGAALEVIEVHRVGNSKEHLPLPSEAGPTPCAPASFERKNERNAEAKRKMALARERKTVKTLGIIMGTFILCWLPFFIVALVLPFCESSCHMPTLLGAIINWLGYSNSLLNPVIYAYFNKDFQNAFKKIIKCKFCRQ

For `O=C(c1cccc(-n2sc3ccccc3c2=O)c1)N1CCCCC1`, which IC50 [1] is on record?
Its IC50 is 13.6 µM (active).

Which IC50 [2] does the source give for `CC(=N)/C(C#N)=C(/O)CSc1nnc(Cc2ccccc2F)n1N` here?
The IC50 was > 50 µM (not active).

And the IC50 [3]?
Its IC50 is 13.6 µM (active).

What does the source list for `C/C(=N\NC(=O)c1ccc(F)cc1)c1ccccn1`?
IC50 [4]: 0.54 µM (active); IC50 [5]: > 25 µM (active); CC50 [6]: 2.98 µM (active); IC50 [7]: 1.96 µM (active); AC50 [8]: 0.523 µM (active); EC50 [9]: 3.53 µM (active); EC50 [10]: > 40 µM (inactive); IC50 [11]: 3 µM (active); EC50 [12]: 5.06 µM (active); EC50 [13]: 0.475 µM (active); CC50 [14]: 2.28 µM (active); EC50 [15]: 0.844 µM (inconclusive); EC50 [16]: 1.98 µM (active)

For `CC(CCc1ccccc1)NC(=O)CSc1nc(N)cc(N)n1` (stereo not drawn), which EC50 [17] is on record?
Its EC50 is > 50 µM (not active).

Which CC50 [18] does the source give for `O=C(CSc1nc2cccc(I)c2c(=O)n1-c1ccccc1)Nc1ccc2c(c1)CCC2` here?
Its CC50 is > 200 µM (active).

What about the CC50 [19] of the same molecule?
The CC50 was > 133 µM (active).

For `CC(NS(=O)(=O)c1ccc(CCC(=O)N2CCN(C)CC2)cc1)c1ccccc1` (stereo not drawn), which EC50 [20] is on record?
Its EC50 is > 60 µM (not active).

And the EC50 [21]?
Its EC50 is < 0.1 µM (active).

What about the EC50 [22] of the same molecule?
The EC50 was 0.349 µM (active).

Which results are given for `Cc1nn(Cc2ccc(Cl)cc2Cl)c(C)c1NC(=O)CCl`?
EC50 [9]: > 150 µM (inconclusive); EC50 [12]: 12.1 µM (active); IC50 [23]: 2.44 µM (active); EC50 [15]: 8.35 µM (active); EC50 [16]: 21.2 µM (active)

With `COc1ccc(OC)c(NC(=S)NC(=O)c2ccc(Br)o2)c1` as the molecule, how does the EC50 [24] read?
The EC50 was 0.01 µM (active).
